Measured values as given in article PMC6859807 (Journal of Experimental Botany, 2019).
Residues, ends and D or L forms follow the SMILES beside them. *: point of attachment. AMC = Cc1cc(=O)oc2cc(N*)ccc12; Cbz = O=C(OCc1ccccc1)*

Target: recombinant HvPAP14 (HvPAP14:MBP) (Hordeum vulgare, UniProt B4ESF2)
Assay: fluorogenic cleavage, ratio of […] nm / […] nm emission
Format: biochemical
Details: 20 uM substrate, pH 3.5-9; enzyme activated at pH 4.5

recombinant HvPAP14 (HvPAP14:MBP), sequence (B4ESF2 30-367): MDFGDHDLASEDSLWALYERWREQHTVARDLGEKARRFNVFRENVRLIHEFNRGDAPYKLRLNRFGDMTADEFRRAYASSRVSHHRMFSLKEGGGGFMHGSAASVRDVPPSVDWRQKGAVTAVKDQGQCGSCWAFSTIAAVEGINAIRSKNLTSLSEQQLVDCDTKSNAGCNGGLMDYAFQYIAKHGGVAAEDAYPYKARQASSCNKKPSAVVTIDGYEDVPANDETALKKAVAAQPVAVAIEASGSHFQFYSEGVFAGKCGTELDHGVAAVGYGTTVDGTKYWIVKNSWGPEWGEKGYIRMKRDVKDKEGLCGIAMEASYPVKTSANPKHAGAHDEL

## Cc1cc(=O)oc2cc(NC(=O)[C@H](CCCNC(=N)N)NC(=O)[C@H](Cc3ccccc3)NC(=O)OCc3ccccc3)ccc12 [Z-FR-AMC] (Cbz-Phe-Arg-{AMC})
  fluorogenic cleavage, ratio of 440 nm / 393 nm emission: activity of the recombinant protein was therefore tested at different pH values using the fluorescent
